The values below come from patent US20100087491A1, “POLYCYCLIC COMPOUNDS” (priority 2006, published 2010).

This experiment deals with T1, S1P1 receptor (Homo sapiens, UniProt P21453).
T1 construct: expressed in transfected cells
Nature of the experiment: S1P1 (EDG-1) GTP[γ-35S] binding assay, membranes from CHO cells. It counts as biochemical. The conditions noted are these: CHO cell membranes. On the procedure:
A. In Vitro: GPCR Activation Assay Measuring GTP [γ-^35S] Binding to Membranes Prepared from CHO Cells Expressing Human S1P Receptors
S1P, (EDG-1) GTP [γ-^35S] binding assay: Homogenized membranes are prepared from CHO cell clones stably expressing a human EDG-1 N-terminal c-myc tag. Cells are grown in suspension in two 850 cm^2 roller bottles for three or fours days before harvesting. The cells are centrifuged down, washed once with cold PBS, and resuspended in ≦20 ml of Buffer A (20 mM HEPES, pH 7.4, […], EDTA-free complete protease inhibitor cocktail [1 tablet/25 ml]). The cell suspension is homogenized on ice, using a Polytron homogenizer at 30000 rpm at three intervals of 15 seconds each. The homogenate is first centrifuged at 2000 rpm on a tabletop low speed centrifuge for 10 minutes. The supernatant, after passing through a cell strainer, is then re-centrifuged at 50,000×g for 25 minutes at 4° C. The pellet is resuspended into buffer B (15% glycerol, 20 mM HEPES, pH 7.4, 0.1 mM EDTA, EDTA-free complete protease inhibitor cocktail [1 tablet/10 ml]). Protein concentration of the preparation is determined using the BCA Protein Assay kit (Pierce) using BSA as standard. The membranes are aliquoted and kept frozen at −80° C.
Solutions of test compounds ranging from 10 mM to 0.01 nM are prepared in DMSO. S1P is diluted in 4% BSA solution as positive controls. The desired amount of membrane preparation is diluted with ice-cold assay buffer (20 mM HEPES, pH 7.4, 100 mM NaCl, 10 mM MgCl2, 0.1% Fatty acid-free BSA, 5 μM GDP) and vortexed well. 2 μl or less of compound is distributed into each well of a round-bottom 96-well polystyrene assay plate, followed by addition of 100 μl of diluted membranes (3-10 μg/well) and kept on ice until the addition of hot GTPγS. [^35S]-GTPγS is diluted 1:1000 (v/v) with cold assay buffer and 100 μl is added into each well. The reaction is carried out at room temperature for 90 minutes before the membranes are harvested onto Perkin-Elmer Unifilter® GF/B-96 filter plate using a Packard Filtermate Harvester. […]

T1 sequence (P21453 whole entry): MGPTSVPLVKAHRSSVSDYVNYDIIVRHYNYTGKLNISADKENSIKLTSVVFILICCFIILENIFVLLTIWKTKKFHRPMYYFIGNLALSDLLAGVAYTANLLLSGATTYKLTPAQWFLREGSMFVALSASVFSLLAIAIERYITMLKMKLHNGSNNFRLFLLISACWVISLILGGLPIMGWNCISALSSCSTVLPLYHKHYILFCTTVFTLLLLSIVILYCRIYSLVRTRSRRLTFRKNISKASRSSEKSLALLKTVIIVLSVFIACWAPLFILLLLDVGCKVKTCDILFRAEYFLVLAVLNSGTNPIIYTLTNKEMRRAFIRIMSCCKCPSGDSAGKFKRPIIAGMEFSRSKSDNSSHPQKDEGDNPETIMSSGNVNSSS

As to `CCc1cc(-c2noc(-c3ccc(OC(C)C)c(-c4ccccc4)c3)n2)ccc1S(N)(=O)=O` [Example 105], the EC50 was less than 100 nM.

The compound `CCOc1ccc(-c2nc(-c3ccc(CN)cc3)no2)cc1C(F)(F)F` [Example 21] had an EC50 of less than 100 nM.

The compound `CNCc1ccc(-c2noc(-c3ccc(-c4ccccc4)c(C(F)(F)F)c3)n2)cc1` [Example 44] showed an EC50 of less than 100 nM.
